Results as given in US20250146007A1 (priority 2022, published 2025).
Entries after “also recorded” stand apart in the source; their conditions may differ.

What was measured:
[1] = tested on: Neutrophil gelatinase-associated lipocalin 2 (NGAL) protein; conditions: human, in vivo; cited from earlier work
[2] = tested on: PCi-SEB_Cau sebocytes; format: cell-based, human
[3] = tested on: C. acnes tdk knock-out; format: cell-based, Cutibacterium acnes

CC1=C(/C=C/C(C)=C/C=C/C(C)=C\C(=O)O)C(C)(C)CCC1 [isotretinoin, 13-cis retinoic acid]
increase in NGAL protein in treated patients [1]: 7 fold | decrease in sebum production compared to AA treated cells [2]: 1.8 fold

O=c1[nH]c(=O)n([C@H]2C[C@H](O)[C@@H](CO)O2)cc1F [FUDR, 5-fluoro-2′-deoxyuridine]
growth of tdk knock-out (knock-in) strain on FUDR plates [3]: could grow; also recorded: no growth inhibiting effect

CC[C@H]1OC(=O)[C@H](C)[C@@H](O[C@H]2C[C@@](C)(OC)[C@@H](O)[C@H](C)O2)[C@H](C)[C@@H](O[C@@H]2O[C@H](C)C[C@H](N(C)C)[C@H]2O)[C@](C)(O)C[C@@H](C)C(=O)[C@H](C)[C@@H](O)[C@]1(C)O [ery, erythromycin]
growth of tdk knock-out (knock-in, ermE) strain on erythromycin plates [3]: could grow
